# According to article PMC12640959, “Elucidation of anti-SARS-CoV-2 and anti-inflammatory bioactives in Qingyan Dropping Pills via integrated in silico screening and bioactivity validation” (Frontiers in Medicine, 2025):
# System: SARS-CoV-2 Omicron BA.5
# Assay: cytopathic effects (CPE) inhibition assay in Vero E6 cells
# Type: cell-based
# Conditions: result in words
compound,measurement,value
"C[C@@H]1O[C@@H](O[C@H]2[C@H](Oc3cc(O)c4c(=O)cc(-c5ccc(O)cc5)oc4c3)O[C@H](CO)[C@@H](O)[C@@H]2O)[C@H](O)[C@H](O)[C@H]1O [RHO, rhoifolin]",inhibition of the SARS-CoV-2 Omicron BA.5 variant,failed to inhibit
